Measured values reported in patent US10555987B2, “GHRH agonists for the treatment of ischemic disorders” (UNIVERSITY OF MIAMI, priority 2012, dated 2020).
Non-standard residues stand in square brackets, D forms with d. Residues, ends and D or L forms follow the SMILES beside them. *: point of attachment. Desaminotyrosyl = O=C(CCc1ccc(O)cc1)*; NMeY = CN[C@@H](Cc1ccc(O)cc1)C(=O)O; Agmatine = N=C(N)NCCCCN*; Nle = CCCC[C@H](N)C(=O)O; Orn = NCCC[C@H](N)C(=O)O; Abu = CC[C@H](N)C(=O)O

Experiments:
[1] = target: T1, GHRH receptor (Homo sapiens, UniProt Q02643); test: GHRH receptor binding, competition with 125I-labeled JV-1-42, human pituitary membrane homogenates (Table 5); parameters: Normal human pituitaries were purchased from the National Hormone and Peptide Program; tissue National Hormone and Peptide Program (A.F. Parlow, Harbor-UCLA Medical Center, Torrance, Calif.); host or cells: normal human pituitary, membrane fraction
T1 sequence (Q02643 23-423): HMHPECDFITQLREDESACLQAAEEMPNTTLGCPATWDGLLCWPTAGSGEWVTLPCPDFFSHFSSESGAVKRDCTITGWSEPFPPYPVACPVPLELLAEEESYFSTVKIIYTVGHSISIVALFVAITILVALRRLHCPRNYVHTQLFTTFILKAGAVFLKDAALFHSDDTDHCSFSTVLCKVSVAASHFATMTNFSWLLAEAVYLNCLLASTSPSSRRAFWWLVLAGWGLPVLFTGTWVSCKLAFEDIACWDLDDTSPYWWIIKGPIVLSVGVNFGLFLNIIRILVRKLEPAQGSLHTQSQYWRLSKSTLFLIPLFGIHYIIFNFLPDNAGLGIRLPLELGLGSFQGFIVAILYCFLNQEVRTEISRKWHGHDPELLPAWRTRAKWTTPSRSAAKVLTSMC
Protocol: Normal human pituitaries were purchased from the National Hormone and Peptide Program (A.F. Parlow, Los Angeles, County Harbor-UCLA Medical Center, Torrance, Calif.). Briefly, in competitive binding analysis, ^125I-labeled JV-1-42 ([…]) was displaced by GHRH agonists at 10^−6 to 10^−12 M.
The final binding affinities were expressed as IC50 values and were calculated by using the LIGAND PC computerized curve-fitting program of Munson and Rodbard as modified by McPherson.

[2] = target: T1, GHRH receptor; test: GHRH receptor binding, competition with 125I-labeled JV-1-42, human pituitary membrane homogenates (Table 7); parameters: Normal human pituitaries were purchased from the National Hormone and Peptide Program; tissue National Hormone and Peptide Program (A.F. Parlow, Harbor-UCLA Medical Center, Torrance, Calif.); host or cells: normal human pituitary, membrane fraction; conditions: for Relative affinity (Binding potency) vs JI-38: JI-38 = 1, Table 7
Text: Normal human pituitaries were purchased from the National Hormone and Peptide Program (A.F. Parlow, Los Angeles, County Harbor-UCLA Medical Center, Torrance, Calif.).

[3] = tested on: GH release; test: In vivo endocrine activity, GH release after intravenous administration (Table 8); conditions: rat; for GH releasing potency in vivo relative to JI-38 (=1): i.v. injection
[4] = tested on: GH release; test: In vivo endocrine activity, GH release after subcutaneous administration (Table 9); conditions: rat; for GH releasing potency relative to JI-38 (=1): subcutaneous (s.c.) injection
Protocol: Subcutaneous Administration. Adult male rats were used and anesthetized with pentobarbital (6 mg/100 g, b.w.), by i.p. injection. […] Blood samples were taken from the jugular vein 5, 15 and/or 30 minutes after the injection. The blood samples were centrifuged, plasma was removed and the GH level was measured byELISA. The results are summarized in terms of potency in Table 9.

[5] = tested on: myocardial infarction (Fisher-344 rats); test: Serial echocardiography after MI, compared to JI-38 (Example 15, Table 15); format: in vivo, rat; parameters: key to LVEDD: Left Ventricular End Diastolic Diameter / LVESD: Left Ventricular End Systolic Diameter / VD: Ventricular Diastole / VS: Ventricular Systole / EF: Ejection Fraction / FS: Fraction Shortening: ↓: downward arrow denotes lower than JI-38; ↑: upward arrow denotes greater than JI-38; =denotes same as JI-38; ⬇⬇: double arrow denotes greater effect; ⬆⬆: double arrow denotes greater effect; conditions: in comparison to JI-38
Method in brief: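 Female 6-month-old Fisher-344 rats with permanent left coronary artery ligation received placebo, JI-38 or GHRH agonists subcutaneously twice daily from 2 h post-surgery (10 per group). Under 2% isoflurane, M-mode LVEDD, LVESD and FS plus long-axis EF were measured at baseline, 2 days, 1, 2 and 4 weeks.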

Structure (SMILES)	IC50 ([1]; 125I-JV-1-42, human pituitary membranes, Table 5) [nM]	Relative affinity (Binding potency) vs GHRH ([1]; GHRH(1-29) = 1, Table 5)	Relative affinity (Binding potency) vs JI-38 ([1]; JI-38 = 1, Table 5)	IC50 ([2]; 125I-JV-1-42, human pituitary membranes, Table 7) [nM]	Relative affinity (Binding potency) vs JI-38 [2]	Stimulation of growth hormone levels after intravenous administration (in words) ([3]; i.v.)	GH releasing potency in vivo relative to JI-38 (=1) ([3]; 15 min after)	GH releasing potency in vivo relative to JI-38 (=1) ([3]; 30 min after)	Stimulation of growth hormone levels after subcutaneous administration (in words) ([4]; s.c.)	GH releasing potency relative to JI-38 (=1) ([4]; 15 min after)	GH releasing potency relative to JI-38 (=1) ([4]; 30 min after)	EF: Ejection Fraction [5]	FS: Fraction Shortening [5]	LVEDD: Left Ventricular End Diastolic Diameter [5]	LVESD: Left Ventricular End Systolic Diameter [5]	VD: Ventricular Diastole [5]	VS: Ventricular Systole [5]
CCCC[C@H](NC(=O)[C@@H](NC(=O)[C@H](CC(=O)O)NC(=O)[C@H](CCC(N)=O)NC(=O)[C@H](CC(C)C)NC(=O)[C@H](CC(C)C)NC(=O)[C@H](CCCN)NC(=O)[C@H](CCCNC(=N)N)NC(=O)[C@H](C)NC(=O)[C@H](CO)NC(=O)[C@H](CC(C)C)NC(=O)[C@H](CCC(N)=O)NC(=O)[C@H](CC)NC(=O)[C@H](CC(C)C)NC(=O)[C@@H](NC(=O)[C@H](CCCN)NC(=O)[C@H](CCCNC(=N)N)NC(=O)[C@H](Cc1ccc(O)cc1)NC(=O)[C@H](CO)NC(=O)[C@H](CCC(N)=O)NC(=O)[C@@H](NC(=O)[C@H](Cc1ccccc1)NC(=O)[C@@H](NC(=O)[C@H](C)NC(=O)[C@H](CC(=O)O)NC(=O)[C@H](C)NC(=O)CCc1ccc(O)cc1)[C@@H](C)CC)[C@@H](C)O)C(C)C)[C@@H](C)CC)C(=O)N[C@@H](CC(=O)O)C(=O)NCCCCNC(=N)N [JI-38, [Dat^1, Gln^8, Orn^12,21, Abu^15, Nle^27, Asp^28, Agm^29]hGHRH(1-29)NH2, reference compound] (Desaminotyrosyl-ADAIFTQSYR[Orn]VL[Abu]QLSAR[Orn]LLQDI[Nle]D-Agmatine)	1.71	2.4	1	4.35	1	–	–	–	–	–	–	–	–	–	–	–	–
CCCC[C@H](NC(=O)[C@@H](NC(=O)[C@H](CC(=O)O)NC(=O)[C@H](CCC(N)=O)NC(=O)[C@H](CC(C)C)NC(=O)[C@H](CC(C)C)NC(=O)[C@H](CCCN)NC(=O)[C@H](CCCNC(=N)N)NC(=O)[C@H](C)NC(=O)[C@H](CO)NC(=O)[C@H](CC(C)C)NC(=O)[C@H](CCC(N)=O)NC(=O)[C@H](CC)NC(=O)[C@H](CC(C)C)NC(=O)[C@@H](NC(=O)[C@H](CCCN)NC(=O)[C@H](CCCNC(=N)N)NC(=O)[C@H](Cc1ccc(O)cc1)NC(=O)[C@H](CO)NC(=O)[C@H](CCC(N)=O)NC(=O)[C@@H](NC(=O)[C@H](Cc1ccccc1)NC(=O)[C@@H](NC(=O)[C@H](C)NC(=O)[C@H](CC(=O)O)NC(=O)[C@@H](C)NC(=O)[C@H](Cc1ccc(O)cc1)NC)[C@@H](C)CC)[C@@H](C)O)C(C)C)[C@@H](C)CC)C(=O)N[C@@H](CC(=O)O)C(=O)N[C@@H](CCCNC(=N)N)C(=O)NC [Peptide P-27403, [N—Me-Tyr^1, D-Ala^2, Gln^8, Orn^12, Abu^15, Orn^21, Nle^27, Asp^28]hGHRH(1-29)NH—CH3] (H-[NMeY][dA]DAIFTQSYR[Orn]VL[Abu]QLSAR[Orn]LLQDI[Nle]DR-NHMe)	–	–	–	–	27.19	most potent	5.01	4.01	stimulated greater growth hormone levels than hGHRH or JI-38	3.60	2.57	=	↓	↑	↑	↑	↑
